Source: ChEMBL document CHEMBL3885881, “DrugMatrix”

Organism: Rattus norvegicus
Experiment: DrugMatrix - Regimen: Daily Repeat
Assay type: toxicity, organism-based, Sprague-Dawley
Parameters: regimen Daily Repeat, gender Male, age 6-8 weeks
Settings: in vivo, po, route oral GAVAGE, […]; for ABSOLUTE BASOPHIL / ABSOLUTE EOSINOPHIL / ABSOLUTE LYMPHOCYTE / ABSOLUTE MONOCYTE / ABSOLUTE SEGMENTED NEUTROPHIL / BASOPHIL / EOSINOPHIL / ERYTHROCYTE COUNT / HEMATOCRIT / HEMOGLOBIN / LEUKOCYTE COUNT / LYMPHOCYTE / MEAN CORPUSCULAR HEMOGLOBIN / MEAN CORPUSCULAR HEMOGLOBIN CONCENTRATION / MEAN CORPUSCULAR VOLUME / MONOCYTE / NEUTROPHIL / NUCLEATED RED BLOOD CELLS / PLATELET COUNT: tissue Blood; for ALANINE AMINOTRANSFERASE / ALKALINE PHOSPHATASE / ASPARTATE AMINOTRANSFERASE / BLOOD UREA NITROGEN / CARBON DIOXIDE / CHLORIDE / CHOLESTEROL / CREATINE PHOSPHOKINASE / CREATININE / GLUCOSE / LACTATE DEHYDROGENASE / LIPASE / PHOSPHORUS / POTASSIUM / SODIUM / TOTAL BILIRUBIN / TOTAL PROTEIN / URIC ACID: tissue Plasma
[1] = 0 mg/kg, 72 h, dose level Control, time 3 day
[2] = 0 mg/kg, 120 h, dose level Control, time 5 day
[3] = 22 mg/kg, 72 h, dose level High, time 3 day

OCCN1CCN(CCCN2c3ccccc3Sc3ccc(C(F)(F)F)cc32)CC1 [FLUPHENAZINE]
ABSOLUTE BASOPHIL [1]: 0 CELLS/uL
ABSOLUTE EOSINOPHIL [1]: 0 CELLS/uL
ABSOLUTE LYMPHOCYTE [1]: 6275.67 CELLS/uL
ABSOLUTE MONOCYTE [1]: 40.67 CELLS/uL
ABSOLUTE SEGMENTED NEUTROPHIL [1]: 633.67 CELLS/uL
BASOPHIL [1]: 0%
EOSINOPHIL [1]: 0%
ERYTHROCYTE COUNT [1]: 5.2 x10E6/uL
HEMATOCRIT [1]: 32.78%
HEMOGLOBIN [1]: 12.98 G/DL
LEUKOCYTE COUNT [1]: 6.95 x10E3/uL
LYMPHOCYTE [1]: 90.17%
MEAN CORPUSCULAR HEMOGLOBIN [1]: 24.97 pg
MEAN CORPUSCULAR HEMOGLOBIN CONCENTRATION [1]: 39.62 G/DL
MEAN CORPUSCULAR VOLUME [1]: 63.03 fL
MONOCYTE [1]: 0.67%
NEUTROPHIL [1]: 9.17%
NUCLEATED RED BLOOD CELLS [1]: 0 /100WBC
PLATELET COUNT [1]: 1082.83 x10E3/uL
ALANINE AMINOTRANSFERASE [1]: 69.67 u/L
ALKALINE PHOSPHATASE [1]: 430.5 u/L
ASPARTATE AMINOTRANSFERASE [1]: 90.83 u/L
BLOOD UREA NITROGEN [1]: 13 mg/dL
CARBON DIOXIDE [1]: 33 mmol/L
CHLORIDE [1]: 99.17 MEQ/L
CHOLESTEROL [1]: 70.5 mg/dL
CREATINE PHOSPHOKINASE [1]: 253.33 u/L
CREATININE [1]: 0.13 mg/dL
GLUCOSE [1]: 157.17 mg/dL
LACTATE DEHYDROGENASE [1]: 85 u/L
LIPASE [1]: 10 u/L
PHOSPHORUS [1]: 10.2 mg/dL
POTASSIUM [1]: 5.78 MEQ/L
SODIUM [1]: 144.12 MEQ/L
TOTAL BILIRUBIN [1]: 0.2 mg/dL
TOTAL PROTEIN [1]: 5.8 G/DL
URIC ACID [1]: 0.8 mg/dL
ABSOLUTE BASOPHIL [2]: 0 CELLS/uL
ABSOLUTE EOSINOPHIL [2]: 0 CELLS/uL
ABSOLUTE LYMPHOCYTE [2]: 10431 CELLS/uL
ABSOLUTE MONOCYTE [2]: 90.5 CELLS/uL
ABSOLUTE SEGMENTED NEUTROPHIL [2]: 1111.83 CELLS/uL
BASOPHIL [2]: 0%
EOSINOPHIL [2]: 0%
ERYTHROCYTE COUNT [2]: 5.51 x10E6/uL
HEMATOCRIT [2]: 34.67%
HEMOGLOBIN [2]: 13.5 G/DL
LEUKOCYTE COUNT [2]: 11.63 x10E3/uL
LYMPHOCYTE [2]: 89.67%
MEAN CORPUSCULAR HEMOGLOBIN [2]: 24.5 pg
MEAN CORPUSCULAR HEMOGLOBIN CONCENTRATION [2]: 38.95 G/DL
MEAN CORPUSCULAR VOLUME [2]: 62.87 fL
MONOCYTE [2]: 0.67%
NEUTROPHIL [2]: 9.67%
NUCLEATED RED BLOOD CELLS [2]: 0 /100WBC
PLATELET COUNT [2]: 1052.67 x10E3/uL
ALANINE AMINOTRANSFERASE [2]: 54.67 u/L
ALKALINE PHOSPHATASE [2]: 359.83 u/L
ASPARTATE AMINOTRANSFERASE [2]: 83 u/L
BLOOD UREA NITROGEN [2]: 13.5 mg/dL
CARBON DIOXIDE [2]: 27.17 mmol/L
CHLORIDE [2]: 98.5 MEQ/L
CHOLESTEROL [2]: 66.83 mg/dL
CREATINE PHOSPHOKINASE [2]: 256.17 u/L
CREATININE [2]: 0.19 mg/dL
GLUCOSE [2]: 171.33 mg/dL
LACTATE DEHYDROGENASE [2]: 91.5 u/L
LIPASE [2]: 10.5 u/L
PHOSPHORUS [2]: 8.72 mg/dL
POTASSIUM [2]: 5.34 MEQ/L
SODIUM [2]: 142.53 MEQ/L
TOTAL BILIRUBIN [2]: 0.2 mg/dL
TOTAL PROTEIN [2]: 6.05 G/DL
URIC ACID [2]: 0.6 mg/dL
ABSOLUTE BASOPHIL [3]: 0 CELLS/uL
ABSOLUTE EOSINOPHIL [3]: 0 CELLS/uL
ABSOLUTE LYMPHOCYTE [3]: 7819 CELLS/uL
ABSOLUTE MONOCYTE [3]: 96.67 CELLS/uL
ABSOLUTE SEGMENTED NEUTROPHIL [3]: 384.33 CELLS/uL
BASOPHIL [3]: 0%
EOSINOPHIL [3]: 0%
ERYTHROCYTE COUNT [3]: 6.13 x10E6/uL
HEMATOCRIT [3]: 39.3%
HEMOGLOBIN [3]: 15.37 G/DL
LEUKOCYTE COUNT [3]: 8.3 x10E3/uL
LYMPHOCYTE [3]: 94.67%
MEAN CORPUSCULAR HEMOGLOBIN [3]: 25.03 pg
MEAN CORPUSCULAR HEMOGLOBIN CONCENTRATION [3]: 39.07 G/DL
MEAN CORPUSCULAR VOLUME [3]: 64.13 fL
MONOCYTE [3]: 1%
NEUTROPHIL [3]: 4.33%
NUCLEATED RED BLOOD CELLS [3]: 0 /100WBC
PLATELET COUNT [3]: 1324.33 x10E3/uL
ALANINE AMINOTRANSFERASE [3]: 35.33 u/L
ALKALINE PHOSPHATASE [3]: 274 u/L
ASPARTATE AMINOTRANSFERASE [3]: 77 u/L
BLOOD UREA NITROGEN [3]: 16.33 mg/dL
CARBON DIOXIDE [3]: 34 mmol/L
CHLORIDE [3]: 108.33 MEQ/L
CHOLESTEROL [3]: 92.67 mg/dL
CREATINE PHOSPHOKINASE [3]: 280 u/L
CREATININE [3]: 0.13 mg/dL
GLUCOSE [3]: 154 mg/dL
LACTATE DEHYDROGENASE [3]: 79.33 u/L
LIPASE [3]: 9.67 u/L
PHOSPHORUS [3]: 9.4 mg/dL
POTASSIUM [3]: 5.57 MEQ/L
SODIUM [3]: 156.07 MEQ/L
TOTAL BILIRUBIN [3]: 0.17 mg/dL
TOTAL PROTEIN [3]: 6.13 G/DL
URIC ACID [3]: 0.53 mg/dL
